Each structure is given as a SMILES string. Values joined by “and” are separate entries in the source; they are usually repeats but may differ in a detail not shown here. Equal entries are not always repeated.

The subject of the assay is K98450-129-R-PDC multicell spheroids, viability. The experiment in a line: Anticancer human tumor K98450-129-R-PDC patient-derived colon adenocarcinoma cell line growth inhibition [PI3K]. As to conditions: for viability, T/C: stronger effect = lower value. The procedure, abridged:
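Tumor cells grown as multi-cell spheroids with HUVEC endothelial cells and MSC fibroblast-like stroma were treated with targeted agents combined with inavolisib, alpelisib, duvelisib or copanlisib. Doses fell in half-log steps from near clinical Cmax, else from 10 microM. Viability was measured.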

The mark [1] stands for this setting: curve of first compound, second compound 0.0316 µM.
The mark [2] stands for this setting: curve of first compound, second compound 0.1 µM.
The mark [3] stands for this setting: curve of first compound, second compound 0.316 µM.
Setting [4] is: curve of first compound, second compound 1 µM.
The mark [5] stands for this setting: curve of first compound, second compound 3.16 µM.
Setting [6] is: curve of first compound, second compound 10 µM.
[7] abbreviates: second compound 0.0316 µM, first compound 0.0316 µM.
The mark [8] stands for this setting: second compound 0.0316 µM, first compound 0.1 µM.
Where [9] appears, read: second compound 0.1 µM, first compound 0.0316 µM.
The mark [10] stands for this setting: second compound 0.1 µM, first compound 0.1 µM.
The mark [11] stands for this setting: second compound 0.316 µM, first compound 0.0316 µM.
[12] abbreviates: second compound 0.316 µM, first compound 0.1 µM.
Where [13] appears, read: second compound 1 µM, first compound 0.0316 µM.
The mark [14] stands for this setting: second compound 1 µM, first compound 0.1 µM.
[15] abbreviates: second compound 3.16 µM, first compound 0.0316 µM.
[16] abbreviates: second compound 3.16 µM, first compound 0.1 µM.
Setting [17] is: second compound 10 µM, first compound 0.0316 µM.
The mark [18] stands for this setting: second compound 10 µM, first compound 0.1 µM.
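Also: spheroids exposed to agents for seven days before read-out.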

On to `Cn1ncc(Cl)c1-c1cc(C(=O)NC(CN)Cc2cccc(F)c2)sc1Cl` (stereo not given) + CC(Nc1ncnc2nc[nH]c12)c1cc2cccc(Cl)c2c(=O)n1-c1ccccc1, for which the IC50 (as a rule, the point on the concentration scale where inhibition reaches its midpoint) runs as follows: under setting [1], greater than 10 µM; under setting [2], greater than 10 µM; under setting [3], greater than 10 µM; under setting [4], greater than 10 µM; under setting [5], 9.63 µM; under setting [6], 8.5 µM. Further, the viability, T/C (commonly the result in the treated group divided by that in the control group, in per cent) is, setting by setting: under setting [7], 88.4%; under setting [8], 105%; (second compound 0.0316 µM, first compound 0.316 µM) 102%; (second compound 0.0316 µM, first compound 1 µM) 93.8%; (second compound 0.0316 µM, first compound 3.16 µM) 98.1%; (second compound 0.0316 µM, first compound 10 µM) 56.9%. Moreover, the viability, T/C reads like this: under setting [9], 107%; under setting [10], 85%; (second compound 0.1 µM, first compound 0.316 µM) 96%; (second compound 0.1 µM, first compound 1 µM) 92.6%; (second compound 0.1 µM, first compound 3.16 µM) 98.1%; (second compound 0.1 µM, first compound 10 µM) 59.8%. Moreover, the viability, T/C under setting [11] is 110%; the viability, T/C under setting [12] is 106%; the viability, T/C (second compound 0.316 µM, first compound 0.316 µM) is 92.4%; the viability, T/C (second compound 0.316 µM, first compound 1 µM) is 101%; the viability, T/C (second compound 0.316 µM, first compound 3.16 µM) was 99%; the viability, T/C (second compound 0.316 µM, first compound 10 µM) was 61.5%. The viability, T/C is, setting by setting: under setting [13], 95.7%; under setting [14], 110%; (second compound 1 µM, first compound 0.316 µM) 101%; (second compound 1 µM, first compound 1 µM) 80.8%; (second compound 1 µM, first compound 3.16 µM) 96.6%; (second compound 1 µM, first compound 10 µM) 61.2%. For the same compound, the viability, T/C was 87.3% under setting [15]; 94.5% under setting [16]; 106% (second compound 3.16 µM, first compound 0.316 µM); 96.9% (second compound 3.16 µM, first compound 1 µM); 97% (second compound 3.16 µM, first compound 3.16 µM); 48.4% (second compound 3.16 µM, first compound 10 µM). Moreover, the viability, T/C by setting is: under setting [17], 85.1%; under setting [18], 86.1%; (second compound 10 µM, first compound 0.316 µM) 87%; (second compound 10 µM, first compound 1 µM) 94.9%; (second compound 10 µM, first compound 3.16 µM) 89.8%; (second compound 10 µM, first compound 10 µM) 43.7%.

Consider `CC1(C)CCC(Nc2ncc(C(F)(F)F)c(-c3c[nH]c4c(P(C)(C)=O)c(C#N)ccc34)n2)CN1` (stereo not given), for which the viability, T/C is 107% and 114% (2×) and 124% (compound 0.0316 µM); 99% [middle of 4 runs] (compound 0.1 µM); 88.8% [middle of 4 runs] (compound 0.316 µM); 70.6% [middle of 4 runs] (compound 1 µM); 66.8% [middle of 4 runs] (compound 3.16 µM); 63.4% [middle of 4 runs] (compound 10 µM). Further, the 50% inhibitory concentration (IC50) (curve of compound) is 8.62 µM and > 10 µM and 9.21 µM.

In the case of `CC1(C)CCC(CN2CCN(c3ccc(C(=O)NS(=O)(=O)c4ccc(NCC5CCOCC5)c([N+](=O)[O-])c4)c(Oc4cnc5[nH]ccc5c4)c3)CC2)=C(c2ccc(Cl)cc2)C1`, the viability, T/C is 105% [middle of 4 runs] (compound 0.0316 µM); 106% and 102% (2×) and 85.6% (compound 0.1 µM); 107% [middle of 4 runs] (compound 0.316 µM); 104% [middle of 4 runs] (compound 1 µM); 94.5% [middle of 4 runs] (compound 3.16 µM).

`Cn1cnc2c(F)c(Nc3ccc(Br)cc3Cl)c(C(=O)NOCCO)cc21`: the viability, T/C was 92.8% [middle of 4 runs] (compound 0.00949 µM); 89.9% [middle of 4 runs] (compound 0.03 µM); 93.2% [middle of 4 runs] (compound 0.0949 µM); 83% [middle of 4 runs] (compound 0.3 µM); 52.5% [middle of 4 runs] (compound 0.949 µM); 22% [middle of 4 runs] (compound 3 µM). Also, the half-inhibitory concentration (IC50) (curve of compound) is 1.07 µM [middle of 4 runs].

On to `CC(C)n1nc(-c2ccc3oc(N)nc3c2)c2c(N)ncnc21` + Cc1nc(NC(=O)N2CCCC2C(N)=O)sc1-c1ccnc(C(C)(C)C(F)(F)F)c1, for which the IC50 is greater than 0.1 µM under setting [1]; greater than 0.1 µM under setting [2]; greater than 0.1 µM under setting [3]; greater than 0.1 µM under setting [4]; greater than 0.1 µM under setting [5]; greater than 0.1 µM under setting [6]. In addition, the viability, T/C runs as follows: (second compound 0.0316 µM, first compound 0.000316 µM) 102%; (second compound 0.0316 µM, first compound 0.001 µM) 97.8%; (second compound 0.0316 µM, first compound 0.00316 µM) 101%; (second compound 0.0316 µM, first compound 0.01 µM) 91.2%; under setting [7], 87.2%; under setting [8], 75.3%. For the same compound, the viability, T/C runs as follows: (second compound 0.1 µM, first compound 0.000316 µM) 106%; (second compound 0.1 µM, first compound 0.001 µM) 95.3%; (second compound 0.1 µM, first compound 0.00316 µM) 99.5%; (second compound 0.1 µM, first compound 0.01 µM) 91%; under setting [9], 88.8%; under setting [10], 79.9%. Further, the viability, T/C (second compound 0.316 µM, first compound 0.000316 µM) is 95.8%; the viability, T/C (second compound 0.316 µM, first compound 0.001 µM) is 99.5%; the viability, T/C (second compound 0.316 µM, first compound 0.00316 µM) is 89.2%; the viability, T/C (second compound 0.316 µM, first compound 0.01 µM) is 90.2%; the viability, T/C under setting [11] is 86.4%; the viability, T/C under setting [12] was 72.3%. The viability, T/C is 88.6% (second compound 1 µM, first compound 0.000316 µM); 89.5% (second compound 1 µM, first compound 0.001 µM); 92.8% (second compound 1 µM, first compound 0.00316 µM); 80.2% (second compound 1 µM, first compound 0.01 µM); 81.9% under setting [13]; 70% under setting [14]. In addition, the viability, T/C (second compound 3.16 µM, first compound 0.000316 µM) is 79.4%; the viability, T/C (second compound 3.16 µM, first compound 0.001 µM) was 78%; the viability, T/C (second compound 3.16 µM, first compound 0.00316 µM) is 79.5%; the viability, T/C (second compound 3.16 µM, first compound 0.01 µM) is 70.8%; the viability, T/C under setting [15] was 77.9%; the viability, T/C under setting [16] was 61.2%. For the same compound, the viability, T/C reads like this: (second compound 10 µM, first compound 0.000316 µM) 66.1%; (second compound 10 µM, first compound 0.001 µM) 70.9%; (second compound 10 µM, first compound 0.00316 µM) 69.8%; (second compound 10 µM, first compound 0.01 µM) 71.9%; under setting [17], 64.3%; under setting [18], 59.2%.

For the compound `C#Cc1c(F)ccc2cc(O)cc(-c3ncc4c(N5CC6CCC(C5)N6)nc(OCC56CCCN5CC(F)C6)nc4c3F)c12` (stereo not given), the viability, T/C by setting is: (compound 0.0316 µM) 109% [middle of 4 runs]; (compound 0.1 µM) 106% [middle of 4 runs]; (compound 0.316 µM) 104% (2×) and 101% and 102%; (compound 1 µM) 105% [middle of 4 runs]; (compound 3.16 µM) 99.8% and 91.5% (2×) and 108%; (compound 10 µM) 89.9% [middle of 4 runs]. Moreover, the IC50 (curve of compound) is greater than 10 µM.

The record behind these values is PubChem BioAssay AID1963961 (Molecular Pharmacology Branch, DTP, NCI, 2024).
